Measured values reported in PubChem BioAssay AID180 (DTP/NCI, 2004).
Several values for one entry are separate records, joined by “and”; a condition that tells them apart may be missing. Equal values may be shown once.

Tested on: BDF1 mice, Adenocarcinoma 755 s.c., tumor weight T/C
Assay: NCI In Vivo Anticancer Drug Screen. Data for tumor model Adenocarcinoma 755 (subcutaneous) in B6D2F1 (BDF1) mice
Details: endpoint: mean tumor weight, higher = larger tumour
Method in brief: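 Values express treated (T) relative to vehicle-dosed control (C) animals, based on survival or tumour size measured after compound treatment of mice bearing a transplanted tumour.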

[1] = dose: 100.0 mg/kg/injection, schedule: Q01DX011 (sc), vehicle: steriod suspending solution
[2] = dose: 200.0 mg/kg/injection, schedule: Q01DX011 (sc), vehicle: steriod suspending solution

With CN(N=O)C(N)=O the T/C (dose: 2.5 mg/kg/injection, schedule: Q01DX011 (ip), vehicle: methylcellulose (MC)) was 109 % of control, the T/C (dose: 2.81 mg/kg/injection, schedule: Q01DX011 (ip), vehicle: carboxymethylcellulose (CMC)) was 78 % of control and the T/C (dose: 3.16 mg/kg/injection, schedule: Q01DX011 (ip), vehicle: carboxymethylcellulose (CMC)) was 78 % of control. The T/C (dose: 5.0 mg/kg/injection, schedule: Q01DX011 (ip), vehicle: methylcellulose (MC)) was 97 % of control, the T/C (dose: 5.62 mg/kg/injection, schedule: Q01DX011 (ip), vehicle: carboxymethylcellulose (CMC)) was 120 % of control and the T/C (dose: 6.32 mg/kg/injection, schedule: Q01DX011 (ip), vehicle: carboxymethylcellulose (CMC)) was 76 % of control. For the same molecule, the T/C (dose: 6.33 mg/kg/injection, schedule: Q01DX011 (ip), vehicle: carboxymethylcellulose (CMC)) was 79 % of control, the T/C (dose: 7.2 mg/kg/injection, schedule: Q01DX011 (ip), vehicle: carboxymethylcellulose (CMC)) was 108 % of control and the T/C (dose: 9.0 mg/kg/injection, schedule: Q01DX011 (ip), vehicle: carboxymethylcellulose (CMC)) was 77 % of control. The T/C (dose: 10.0 mg/kg/injection, schedule: Q01DX011 (ip), vehicle: methylcellulose (MC)) was 87 % of control, the T/C (dose: 10.12 mg/kg/injection, schedule: Q01DX011 (ip), vehicle: carboxymethylcellulose (CMC)) was 109 % of control and 119 % of control and the T/C (dose: 12.0 mg/kg/injection, schedule: Q01DX011 (ip), vehicle: carboxymethylcellulose (CMC)) was 79 % of control. For the same molecule, the T/C (dose: 13.0 mg/kg/injection, schedule: Q01DX011 (ip), vehicle: carboxymethylcellulose (CMC)) was 93 % of control, the T/C (dose: 15.0 mg/kg/injection, schedule: Q01DX011 (ip), vehicle: carboxymethylcellulose (CMC)) was 97 % of control and 85 % of control and the T/C (dose: 18.0 mg/kg/injection, schedule: Q01DX011 (ip), vehicle: carboxymethylcellulose (CMC)) was 13 % of control. The T/C (dose: 20.0 mg/kg/injection, schedule: Q01DX011 (ip), vehicle: methylcellulose (MC)) was 27 % of control, the T/C (dose: 22.5 mg/kg/injection, schedule: Q01DX011 (ip), vehicle: carboxymethylcellulose (CMC)) was 21 % of control and 42 % of control and the T/C (dose: 25.0 mg/kg/injection, schedule: Q01DX011 (ip), vehicle: carboxymethylcellulose (CMC)) was 24 % of control.
With Nc1nc(SCc2ccc(F)cc2)c2ncn(C3OC(CO)C(O)C3O)c2n1 (centres undefined) the T/C (dose: 3.1 mg/kg/injection, schedule: Q01DX011 (ip), vehicle: methylcellulose (MC)) was 86 % of control, the T/C (dose: 6.2 mg/kg/injection, schedule: Q01DX011 (ip), vehicle: methylcellulose (MC)) was 59 % of control and the T/C (dose: 12.5 mg/kg/injection, schedule: Q01DX011 (ip), vehicle: methylcellulose (MC)) was 19 % of control. For the same molecule, the T/C (dose: 25.0 mg/kg/injection, schedule: Q01DX011 (ip), vehicle: methylcellulose (MC)) was 11 % of control.
C[C@]12CCC(=O)C=C1CC[C@@H]1[C@@H]2[C@@H](O)C[C@]2(C)C(=O)CC[C@@H]12 was tested, and the T/C [1] was 107 % of control and the T/C [2] was 83 % of control.
For O=[N+]([O-])c1ccc(O)c([N+](=O)[O-])c1, the T/C (dose: 3.35 mg/kg/injection, schedule: Q01DX011 (ip), vehicle: carboxymethylcellulose (CMC)) was 60 % of control, the T/C (dose: 3.92 mg/kg/injection, schedule: Q01DX011 (ip), vehicle: carboxymethylcellulose (CMC)) was 57 % of control and the T/C (dose: 6.7 mg/kg/injection, schedule: Q01DX011 (ip), vehicle: carboxymethylcellulose (CMC)) was 92 % of control. The T/C (dose: 7.85 mg/kg/injection, schedule: Q01DX011 (ip), vehicle: carboxymethylcellulose (CMC)) was 54 % of control, the T/C (dose: 13.4 mg/kg/injection, schedule: Q01DX011 (ip), vehicle: carboxymethylcellulose (CMC)) was 64 % of control and the T/C (dose: 15.7 mg/kg/injection, schedule: Q01DX011 (ip), vehicle: carboxymethylcellulose (CMC)) was 53 % of control. The T/C (dose: 26.8 mg/kg/injection, schedule: Q01DX011 (ip), vehicle: carboxymethylcellulose (CMC)) was 91 % of control and the T/C (dose: 31.4 mg/kg/injection, schedule: Q01DX011 (ip), vehicle: carboxymethylcellulose (CMC)) was 78 % of control.
In the case of CC1(O)CCC2C3CCC4=CC(=O)CCC4C3CCC21C (centres undefined), the T/C (dose: 50.0 mg/kg/injection, schedule: Q01DX011 (sc), vehicle: steriod suspending solution) is reported as 93 % of control, the T/C [1] is reported as 76 % of control and the T/C [2] is reported as 59 % of control. The T/C (dose: 400.0 mg/kg/injection, schedule: Q01DX011 (sc), vehicle: steriod suspending solution) was 51 % of control, the T/C (dose: 500.0 mg/kg/injection, schedule: Q01DX011 (sc), vehicle: steriod suspending solution) was 47 % of control and the T/C (dose: 600.0 mg/kg/injection, schedule: Q01DX011 (sc), vehicle: steriod suspending solution) was 38 % of control.
With Cc1ccccc1N(C=O)c1ccccc1C the T/C (dose: 250.0 mg/kg/injection, schedule: Q01DX011 (ip), vehicle: methylcellulose (MC)) was 108 % of control, the T/C (dose: 500.0 mg/kg/injection, schedule: Q01DX011 (ip), vehicle: methylcellulose (MC)) was 120 % of control and the T/C (dose: 1000.0 mg/kg/injection, schedule: Q01DX011 (ip), vehicle: methylcellulose (MC)) was 110 % of control.
With CC(=O)OCC1OC(n2cnc3c(=O)[nH]cnc32)CC1OC(C)=O (centres undefined) the T/C (dose: 60.0 mg/kg/injection, schedule: Q01DX011 (ip), vehicle: carboxymethylcellulose (CMC)) was 75 % of control and 78 % of control and the T/C (dose: 120.0 mg/kg/injection, schedule: Q01DX011 (ip), vehicle: carboxymethylcellulose (CMC)) was 86 % of control.
In the case of Nc1nc(N)c2[nH]cnc2n1, the T/C (dose: 17.49 mg/kg/injection, schedule: Q01DX011 (ip), vehicle: carboxymethylcellulose (CMC)) is reported as 94 % of control, the T/C (dose: 17.62 mg/kg/injection, schedule: Q01DX011 (ip), vehicle: carboxymethylcellulose (CMC)) is reported as 114 % of control and the T/C (dose: 34.98 mg/kg/injection, schedule: Q01DX011 (ip), vehicle: carboxymethylcellulose (CMC)) is reported as 93 % of control. The T/C (dose: 35.25 mg/kg/injection, schedule: Q01DX011 (ip), vehicle: carboxymethylcellulose (CMC)) was 91 % of control, the T/C (dose: 69.95 mg/kg/injection, schedule: Q01DX011 (ip), vehicle: carboxymethylcellulose (CMC)) was 103 % of control and the T/C (dose: 70.5 mg/kg/injection, schedule: Q01DX011 (ip), vehicle: carboxymethylcellulose (CMC)) was 108 % of control. For the same molecule, the T/C (dose: 141.0 mg/kg/injection, schedule: Q01DX011 (ip), vehicle: carboxymethylcellulose (CMC)) was 47 % of control.
For C1OC1C1CO1 (centres undefined), the T/C (dose: 3.05 mg/kg/injection, schedule: Q01DX011 (ip), vehicle: carboxymethylcellulose (CMC)) was 83 % of control, the T/C (dose: 3.5 mg/kg/injection, schedule: Q01DX011 (ip), vehicle: carboxymethylcellulose (CMC)) was 77 % of control and the T/C (dose: 7.0 mg/kg/injection, schedule: Q01DX011 (ip), vehicle: carboxymethylcellulose (CMC)) was 72 % of control. The T/C (dose: 8.13 mg/kg/injection, schedule: Q01DX011 (ip), vehicle: carboxymethylcellulose (CMC)) was 62 % of control and 68 % of control, the T/C (dose: 14.0 mg/kg/injection, schedule: Q01DX011 (ip), vehicle: carboxymethylcellulose (CMC)) was 110 % of control and the T/C (dose: 24.4 mg/kg/injection, schedule: Q01DX011 (ip), vehicle: carboxymethylcellulose (CMC)) was 24 % of control and 33 % of control and 45 % of control. The T/C (dose: 28.0 mg/kg/injection, schedule: Q01DX011 (ip), vehicle: carboxymethylcellulose (CMC)) was 61 % of control.
With CC(=O)NCCc1ccccc1 the T/C (dose: 12.5 mg/kg/injection, schedule: Q01DX011 (ip), vehicle: other) was 106 % of control, the T/C (dose: 25.0 mg/kg/injection, schedule: Q01DX011 (ip), vehicle: other) was 71 % of control and the T/C (dose: 50.0 mg/kg/injection, schedule: Q01DX011 (ip), vehicle: other) was 99 % of control. For the same molecule, the T/C (dose: 100.0 mg/kg/injection, schedule: Q01DX011 (ip), vehicle: other) was 87 % of control, the T/C (dose: 200.0 mg/kg/injection, schedule: Q01DX011 (ip), vehicle: other) was 59 % of control and the T/C (dose: 400.0 mg/kg/injection, schedule: Q01DX011 (ip), vehicle: other) was 49 % of control.
With C[C@]12CCC(=O)C=C1CC[C@H]1[C@@H]3CC[C@](O)(C(=O)CF)[C@@]3(C)C[C@H](O)[C@@]12F the T/C (dose: 0.87 mg/kg/injection, schedule: Q01DX011 (sc), vehicle: steriod suspending solution) was 86 % of control, the T/C (dose: 1.75 mg/kg/injection, schedule: Q01DX011 (sc), vehicle: steriod suspending solution) was 68 % of control and the T/C (dose: 3.5 mg/kg/injection, schedule: Q01DX011 (sc), vehicle: steriod suspending solution) was 66 % of control and 69 % of control. For the same molecule, the T/C (dose: 7.0 mg/kg/injection, schedule: Q01DX011 (sc), vehicle: steriod suspending solution) was 29 % of control and 34 % of control and 40 % of control, the T/C (dose: 28.0 mg/kg/injection, schedule: Q01DX011 (sc), vehicle: steriod suspending solution) was 9 % of control and 28 % of control and the T/C (dose: 56.0 mg/kg/injection, schedule: Q01DX011 (sc), vehicle: steriod suspending solution) was 10 % of control and 31 % of control.
